Data: patent US20180093951A1, “PESTICIDALLY ACTIVE CAR[…] THIOCAR[…] DERIVATIVES” (Syngenta Participations AG, priority 2015, published 2018)

Experiments:
[1] = test system: Spodoptera littoralis; experiment: Spodoptera littoralis (Egyptian cotton leaf worm) cotton leaf disc spray test; assay type: in vivo; conditions: foliar, 72 h, application rate of 200 ppm, L1 larvae, 3 days after infestation, read-out: control (at least one of mortality, anti-feedant effect, growth inhibition)
Procedure: Example B1: Spodoptera littoralis (Egyptian Cotton Leaf Worm)
Cotton leaf discs were placed on agar in 24-well microtiter plates and sprayed with aqueous test solutions prepared from 10,000 ppm DMSO stock solutions. After drying, the leaf discs were infested with five L1 larvae. The samples were assessed for mortality, anti-feedant effect, and growth inhibition in comparison to untreated samples 3 days after infestation. Control of Spodoptera littoralis by a test sample is when at least one of mortality, anti-feedant effect, and growth inhibition is higher than the untreated sample.

[2] = test system: Plutella Xylostella; experiment: Plutella xylostella (diamond back moth) artificial diet test; assay type: in vivo; conditions: 120 h, application rate of 200 ppm, L2 larvae, 5 days after infestation, read-out: effect in at least one of the two categories (mortality or growth inhibition)
Procedure: Example B2: Plutella Xylostella (Diamond Back Moth)
(§1) 24-well microtiter plates with artificial diet were treated with aqueous test solutions prepared from 10,000 ppm DMSO stock solutions by pipetting. After drying, the plates were infested with L2 larvae (10 to 15 per well). The samples were assessed for mortality and growth inhibition in comparison to untreated samples 5 days after infestation.
The following compounds gave an effect of at least 80% in at least one of the two categories (mortality or growth inhibition) at an application rate of 200 ppm: P1, P2, P3, P5, P10, P11, P14 and P20.

[3] = test system: Diabrotica Balteata; experiment: Diabrotica balteata (corn root worm) maize sprout test; assay type: in vivo; conditions: 96 h, application rate of 200 ppm, L2 larvae, 4 days after infestation, read-out: effect in at least one of the two categories (mortality or growth inhibition)
Procedure: Example B3: Diabrotica Balteata (Corn Root Worm)
as §1, with “Maize sprouts, placed on an agar layer in 24-well” for “24-well”, “plates” for “plates with artificial diet”, “spraying.” for “pipetting.”, “(6” for “(10”, “10” for “15”, “4” for “5”
The following compounds gave an effect of at least 80% in at least one of the two categories (mortality or growth inhibition) at an application rate of 200 ppm: P1, P2, P3, P4, P5, P10 and P14.

[4] = test system: Tetranychus Urticae; experiment: Tetranychus urticae (two-spotted spider mite) feeding/contact activity on bean leaf discs; assay type: in vivo; conditions: foliar, 192 h, application rate of 200 ppm, mixed population (mobile stages), 8 days after infestation
Procedure: Example B4: Tetranychus Urticae (Two-Spotted Spider Mite) (Feeding/Contact Activity)
Bean leaf discs on agar in 24-well microtiter plates were sprayed with aqueous test solutions prepared from 10′000 ppm DMSO stock solutions. After drying the leaf discs were infested with a mite population of mixed ages. The samples were assessed for mortality on mixed population (mobile stages) 8 days after infestation.

SMILES | melting point [°C] | percent effect (mortality or growth inhibition) at 200 ppm [2] [%] | also measured
O=C(Nc1ccccc1C(F)(F)F)O/N=C/c1ccc(-c2ncn(-c3ccc(OC(F)(F)F)cc3)n2)cc1 | 179 to 180 | – | –
O=C(Nc1ccccc1)O/N=C/c1ccc(-c2ncn(-c3ccc(OC(F)(F)F)cc3)n2)cc1 | 174 to 180 | – | –
O=C(Nc1ccc(Cl)cc1Cl)O/N=C/c1ccc(-c2ncn(-c3ccc(OC(F)(F)F)cc3)n2)cc1 | 179 to 182 | – | –
O=C(Nc1ccccc1Cl)O/N=C/c1ccc(-c2ncn(-c3ccc(OC(F)(F)F)cc3)n2)cc1 | 183 to 184 | – | –
COc1ccccc1NC(=O)O/N=C/c1ccc(-c2ncn(-c3ccc(OC(F)(F)F)cc3)n2)cc1 | 182 to 183 | – | –
O=C(Nc1cscc1Br)O/N=C/c1ccc(-c2ncn(-c3ccc(OC(F)(F)F)cc3)n2)cc1 | 197 to 198 | – | –
CC(C)c1ccccc1NC(=O)O/N=C/c1ccc2c(c1)nc(-c1ccc(OC(F)(F)F)cc1)n2C | 93 to 130 | – | –
CC(C)c1ccccc1NC(=O)O/N=C/c1ccc2nc(-c3ccc(OC(F)(F)F)cc3)n(C)c2c1 | 98 to 130 | – | –
Cc1cccc(C)c1NC(=O)O/N=C/c1ccc2nc(-c3ccc(OC(F)(F)F)cc3)n(C)c2c1 | 68 to 124 | – | –
Cc1cccc(C)c1NC(=O)O/N=C/c1ccc2c(c1)nc(-c1ccc(OC(F)(F)F)cc1)n2C | 68 to 124 | – | –
Cc1cccc(C)c1NC(=O)O/N=C/c1ccc2c(c1)C(=O)N(c1ccc(OC(F)(F)F)cc1)C2=O | 247 to 248 | – | –
CC/C(=N\OC(=O)Nc1ccccc1C(C)C)c1ccc(-c2ncn(-c3ccc(OC(F)(F)F)cc3)n2)cc1 | 170 to 171 | – | –
CC/C(=N\OC(=O)Nc1ccccc1C(F)(F)F)c1ccc(-c2ncn(-c3ccc(OC(F)(F)F)cc3)n2)cc1 | 151 to 154 | – | –
CC(C)c1ccccc1NC(=O)O/N=C\c1ccc(-c2ncn(-c3ccc(OC(F)(F)F)cc3)n2)cc1 (single isomer, unassigned) [Compound P1, [(Z)-[4-[1-[4-(trifluoromethoxy)phenyl]-1,2,4-triazol-3-yl]phenyl]methyleneamino] N-(2-isopropylphenyl) carbamate] | – | ≥ 80 | percent control (mortality, anti-feedant effect or growth inhibition) at 200 ppm [1]: ≥ 80%; percent effect (mortality or growth inhibition) at 200 ppm [3]: ≥ 80%
CC(C)c1ccccc1NC(=O)O/N=C/c1ccc(-c2ncn(-c3ccc(OC(F)(F)F)cc3)n2)cc1 (single isomer, unassigned) [Compound P2, [(E)-[4-[1-[4-(trifluoromethoxy)phenyl]-1,2,4-triazol-3-yl]phenyl]methyleneamino] N-(2-isopropylphenyl) carbamate] | – | ≥ 80 | percent control (mortality, anti-feedant effect or growth inhibition) at 200 ppm [1]: ≥ 80%; percent effect (mortality or growth inhibition) at 200 ppm [3]: ≥ 80%
C/C(=N\OC(=O)Nc1ccccc1C(C)C)c1ccc(-c2ncn(-c3ccc(OC(F)(F)F)cc3)n2)cc1 [Compound P3] | – | ≥ 80 | percent effect (mortality or growth inhibition) at 200 ppm [3]: ≥ 80%
C/C(=N\OC(=O)Nc1ccccc1C(F)(F)F)c1ccc(-c2ncn(-c3ccc(OC(F)(F)F)cc3)n2)cc1 [Compound P4, [1-[4-[1-[4-(trifluoromethoxy)phenyl]-1,2,4-triazol-3-yl]phenyl]ethylideneamino]N-[2-(trifluoromethyl)phenyl]carbamate] | – | – | percent effect (mortality or growth inhibition) at 200 ppm [3]: ≥ 80%
C/C(=N\OC(=O)Nc1c(C)cccc1C)c1ccc(-c2ncn(-c3ccc(OC(F)(F)F)cc3)n2)cc1 [Compound P5] | – | ≥ 80 | percent control (mortality, anti-feedant effect or growth inhibition) at 200 ppm [1]: ≥ 80%; percent effect (mortality or growth inhibition) at 200 ppm [3]: ≥ 80%
CC/C(=N\OC(=O)Nc1c(C)cccc1C)c1ccc(-c2ncn(-c3ccc(OC(F)(F)F)cc3)n2)cc1 [Compound P10] | – | ≥ 80 | percent control (mortality, anti-feedant effect or growth inhibition) at 200 ppm [1]: ≥ 80%; percent effect (mortality or growth inhibition) at 200 ppm [3]: ≥ 80%
Cc1cccc(C)c1NC(=O)O/N=C/CCc1ccc(-c2ncn(-c3ccc(OC(F)(F)F)cc3)n2)cc1 [Compound P11] | – | ≥ 80 | –
Cc1cccc(C)c1NC(=O)O/N=C/c1ccc(-c2ncn(-c3ccc(OC(F)(F)F)cc3)n2)cc1 [Compound P14] | – | ≥ 80 | percent effect (mortality or growth inhibition) at 200 ppm [3]: ≥ 80%
Cc1cccc(C)c1NC(=O)O/N=C/c1ccc2sc(-c3ccc(OC(F)(F)F)cc3)nc2c1 [Compound P17] | – | – | percent control (mortality, anti-feedant effect or growth inhibition) at 200 ppm [1]: ≥ 80%
Cc1cc(NC(=O)O/N=C/c2ccc(-c3ncn(-c4ccc(OC(F)(F)F)cc4)n3)cc2)c(C(F)(F)F)o1 [Compound P19] | – | – | mortality at 200 ppm [4]: ≥ 80%
O=C(Nc1ccc(Cl)nc1)O/N=C/c1ccc(-c2ncn(-c3ccc(OC(F)(F)F)cc3)n2)cc1 [Compound P20] | – | ≥ 80 | mortality at 200 ppm [4]: ≥ 80%; percent control (mortality, anti-feedant effect or growth inhibition) at 200 ppm [1]: ≥ 80%
